According to US11220527B2, “Peptides derived from the propeptide NTSR3 and their use in the treatment of depression” (CENTRE NATIONAL DE LA RECHERCHE SCIENTIFIQUE, priority 2016, dated 2022):
Where no end group is shown, it is not given here.

How the values were obtained:
[1] = Learned helplessness test (LHT); format: in vivo; conditions: mice, bolus of 100 μL of a 10^-6 M solution 30 minutes before conditioning, FIG. 4
Method: Learned resignation or learned helplessness is a model based on the repeated administration of electric shocks to induce a resigned state in the animal.
The apparatus comprises two compartments separated by a sliding door and with a floor consisting of a metal grid through which the electrical pulses are administered. The learned helplessness protocol is divided into two stages, an animal conditioning stage and a test stage.
The conditioning was carried out over a period of four days during which time the mice received 360 non-avoidable electric shocks of 0.3 mA for one hour (the door, separating the two compartments, being closed). The shocks lasted for 2 seconds and an interval of 8 seconds was respected between each shock. This conditioning step leads to a phenomenon of helplessness in animals.
On the day of the test, the mice were placed in the same compartments but with a possibility of escaping the shock. The test counted 30 trials. During the administration of the shock, the door separating the two compartments opened, allowing the animals to flee. When the animal changes compartment the test is finished and the shock stops. […] This test made it possible to record the escape latencies of the animals. The thirty tests were then grouped by 5 and the average escape time was calculated. […]

[2] = test system: BrdU-positive cells of the dentate gyrus of the hippocampus; test: Hippocampal neurogenesis by BrdU immunohistochemistry; format: in vivo; conditions: mice, four days of treatment, FIG. 5
Method: BrdU (5-bromo-2′-deoxyuridine) is a synthetic nucleoside analogous to thymidine. It is incorporated during DNA replication during phase S (chromosome duplication during interphase) of the cells in division. Injection of BrdU makes it possible to visualize the cells in division of the tissue to be analyzed by means of immunological labeling. In the present study, the hippocampal neurogenesis of the mice was evaluated after treatment with spadin or the different analogs.
After the behavioral tests, the mice were injected with BrdU at a final concentration of 120 mg/kg intraperitoneally, according to the modified protocol of Beauquis, J. et al. (Eur J Neurosci 23, 1539-1546, 2007). Four injections of 300 μl at 10 mg/ml, spaced two hours apart, were performed. 24 hours after the injections, the mice were anesthetized with pentobarbital (100 mg/kg) and then perfused intracardially. During the intracardiac perfusion, physiological saline was administered to remove all blood from the body of the mice, and then 4% paraformaldehyde (PFA) was perfused to fix the organs. Post-fixation in 4% PFA was also performed overnight. The brains of the mice were cut with a vibratome (Leica), which allowed 40 μm floating frontal sections to be obtained. The sections selected for the immunological reaction were those ranging from bregma 3.3 to 5.3. Eight sections were selected with a regular spacing, allowing the entire hippocampus to be covered while remaining homogeneous from one brain to another.
The immunological reaction was performed by incubating an anti-BrdU primary antibody (BD Pharmingen, 1/8000), with the brain sections, overnight at 4° C. The brain sections were then washed in PBS (Phosphate Buffered Saline) and incubated for two hours with the secondary antibody (biotinylated goat anti-mouse antibody, Vector laboratories, 1/400). […]
The sections were then mounted on slides and fixed with Entellan. BrdU-positive cells of the dentate gyrus of the hippocampus were counted in both hemispheres of each brain. […]

Q: For AVSWGLR [G/A-PE(22-28), AVSWGLR], which “escape latencies in the learned helplessness test” value [1] is on record?
A: capable of reducing the escape latencies

Q: What about the “neurogenesis (BrdU-positive cells of the hippocampus)” value [2] of the same substance?
A: increase neurogenesis more strongly than peptide PE(22-28)

Q: And the “neurogenesis (BrdU-positive cells of the hippocampus)” value ([2]; listed as G/APE(22-28))?
A: capable of inducing an increase in neurogenesis
